Experiment [1] deals with c-Kit kinase (Homo sapiens (Human), UniProt P10721). The experiment can be described thus: c-Kit biochemical assay (AlphaScreen kinase activity). On the procedure: Assays for biochemical cell-based activity of c-kit kinase are known in the art, for example, as described in U.S. Pat. Nos. 7,498,342 and 7,846,941, the disclosures of which are hereby incorporated by reference as it relates to such assays. The c-kit (or kinase domain thereof) is an active kinase in AlphaScreen. IC50 values are determined with respect to inhibition of c-Kit kinase activity, where inhibition of phosphorylation of a peptide substrate is measured as a function of compound concentration. Compounds to be tested were dissolved in DMSO to a concentration of 30 mM. These were diluted 30 μl into 130 μl of DMSO (4 mM) and 1 μl was added to an assay plate. These were then serially diluted 1:3 (50 μl to 100 μl DMSO) for a total of 8 points. Plates were prepared such that each kinase reaction is 30 μl in 1× kinase buffer (50 mM HEPES, pH 7.2, 5 mM MgCl2, 5 mM MnCl2, 0.01% NP-40, 0.2% BSA), 5% DMSO and 10 μM ATP. Substrate was 100 nM biotin-(E4Y)3 (Open Source Biotech, Inc.). C-kit kinase was at 0.1 ng per sample. After incubation of the kinase reaction for 1 hour at room temperature, 5 μl of donor beads (Streptavidin coated beads (Perkin Elmer Life Science) final concentration 1 μg/ml) in stop buffer (50 mM EDTA in 1× kinase buffer) was added, the sample was mixed and incubated for 30 minutes at room temperature before adding […] of acceptor beads (PY30 coated beads (Perkin Elmer Life Science) final concentration 1 μg/ml) in stop buffer. The samples were incubated for 60 minutes at room temperature and the signal per well was read on AlphaQuest reader. Phosphorylated substrate results in binding of the PY30 antibody and association of the donor and acceptor beads such that signal correlates with kinase activity. The signal vs. compound concentration was used to determine the IC50.
Compounds were also tested using a similar assay with a 10-fold higher ATP concentration. For these samples, compounds to be tested were dissolved in DMSO to a concentration of 30 mM. These were diluted 30 μl into 130 μl of DMSO (4 mM) and 1 μl was added to an assay plate. These were then serially diluted 1:3 (50 μl to 100 μl DMSO) for a total of 8 points. Plates were prepared such that each kinase reaction is 30 μl in 1× kinase buffer (25 mM HEPES, pH 7.5, 2 mM MgCl2, 2 mM MnCl2, 0.01% […], 1 mM DTT, and 0.001% BSA), 5% DMSO and 100 μM ATP. Substrate was 30 nM biotin-(E4Y)10 (Upstate Biotech, Cat#12-440). C-kit kinase was at 1 ng per sample. After incubation of the kinase reaction for 1 hour at room temperature, 5 μl of donor beads (Streptavidin coated beads (Perkin Elmer Life Science) final concentration 10 μg/ml) in stop buffer (25 mM HEPES pH 7.5, 100 mM EDTA, 0.3% BSA) was added, the sample was mixed and incubated for 30 minutes at room temperature before adding 5 μl of acceptor beads (PY30 coated beads (Perkin Elmer Life Science) final concentration 10 μg/ml) in stop buffer. The samples were incubated for 60 minutes at room temperature and the signal per well was read on AlphaQuest or Envision reader (Perkin Elmer Life Science). Phosphorylated substrate results in binding of the PY30 antibody and association of the donor and acceptor beads such that signal correlates with kinase activity. The signal vs. compound concentration was used to determine the IC50.
The c-kit enzyme used in the above assay was either obtained from Cell Signaling Technology (Cat. #7754) or was prepared as follows: A plasmid encoding kit (DNA and encoded protein sequences shown below) was engineered using common polymerase chain reaction (PCR) methods. Complementary DNA cloned from various human tissues were purchased from Invitrogen, and these were used as substrates in the PCR reactions. Specific custom synthetic oligonucleotide primers were designed to initiate the PCR product, and also to provide the appropriate restriction enzyme cleavage sites for ligation with the plasmids. […]
(In Alpha technology, singlet oxygen from a donor bead excites a nearby acceptor bead.)

Experiment [2] relates to BaF3-FL KIT D816V or BaF3-FL KIT V560G/D816V cell line. The experiment can be described thus: Cell-based assays of c-Kit mutant kinase activity (cell proliferation, ATPlite). The note with it: at least one of the c-kit cell assays of Example 7. On the procedure:
The c-Kit mutant D816V inhibitors were assessed using an engineered BaF3-FL KIT D816V or BaF3-FL KIT V560G/D816V cell line. The BaF3-FL KIT D816V cell lines were created by introduction of KIT mutant (D816V) full length constructs that render the cells dependent on the introduced kinase for growth. Inhibitors of c-Kit mutant D816V kinase reduce or eliminate the mediated c-kit mutant D816V kinase activation, resulting in reduced cell proliferation of the BaF3-FL Kit mutant D816V cells. This inhibition is measured by the effect of compound concentration on cell growth to assess IC50 values. BaF3-FL KIT D816V cells were seeded at 1×10^4 cells per well of a 96 well cell culture plate in 50 μl of cell culture medium of RPMI Medium 1× (Invitrogen #11875-093) supplemented with 10% FBS (Invitrogen #10438), 1% Non Essential Amino Acids (Invitrogen #11140), 1% Penicillin Streptomycin (Invitrogen #15140), 1% L-Glutamine (Invitrogen #25030-081). Compounds were dissolved in DMSO at a concentration of 5 mM and were serially diluted 1:3 for a total of eight points and added to the cells to a final maximum concentration of 10 μM in 100 μl cell culture medium (final concentration 0.2% DMSO). Cells were also treated with Dasatinib as a positive control. The cells were incubated at 37° C., 5% CO2 for three days. ATPlite Buffer (Perkin Elmer #6016739) and substrate were equilibrated to room temperature, and enzyme/substrate Recombinant Firefly Luciferase/D-Luciferin was reconstituted. The cell plates were equilibrated to room temperature for 30 minutes, then lysed by addition of 25 μL per well of the ATPlite Reagent. The plate was mixed for 5 minutes on a plate shaker to lyse the cells. The plates were read on a Tecan Safire using Luminescence protocol modified to read 0.1s per well. The luminescence reading assesses the ATP content, which correlates directly with cell number such that the reading as a function of compound concentration is used to determine the IC50 value.
Plasmids P75635 and P75565 were engineered for mammalian cell expression. In both plasmids, full-length human v-kit Hardy-Zuckerman 4 feline sarcoma viral oncogene homolog gene (NCBI accession NM_000222, KIT, residues M1-V976) was subcloned into the pCI-Neo vector (Promega E1841). Plasmid P75635 contains the mutation of residue Aspartic acid 816 to Valine. Plasmid P75565 contains the double mutation of residues Valine 560 to Glycine and Aspartic acid 816 to Valine. The pCI-neo Mammalian Expression Vector carries the human cytomegalovirus (CMV) immediate-early enhancer/promoter region to promote constitutive expression of KIT and contains the neomycin phosphotransferase gene, a selectable marker.
It is understood that the results of these assays may vary as assay conditions are varied. Inhibition levels determined under the conditions described herein represent a relative activity for the compounds tested under the specific conditions employed. The cell based assays are likely to show variability due to the complexity of the system and the sensitivity thereof to any changes in the assay conditions. […] In some instances, the compounds were not tested in all of the assays, or assay results were not valid.

The values that follow come from patent publication US9771369B2, “Compounds and methods for kinase modulation, and indications therefor” (Plexxikon Inc., priority 2014, dated 2017).

c-Kit kinase, sequence (P10721 26-976): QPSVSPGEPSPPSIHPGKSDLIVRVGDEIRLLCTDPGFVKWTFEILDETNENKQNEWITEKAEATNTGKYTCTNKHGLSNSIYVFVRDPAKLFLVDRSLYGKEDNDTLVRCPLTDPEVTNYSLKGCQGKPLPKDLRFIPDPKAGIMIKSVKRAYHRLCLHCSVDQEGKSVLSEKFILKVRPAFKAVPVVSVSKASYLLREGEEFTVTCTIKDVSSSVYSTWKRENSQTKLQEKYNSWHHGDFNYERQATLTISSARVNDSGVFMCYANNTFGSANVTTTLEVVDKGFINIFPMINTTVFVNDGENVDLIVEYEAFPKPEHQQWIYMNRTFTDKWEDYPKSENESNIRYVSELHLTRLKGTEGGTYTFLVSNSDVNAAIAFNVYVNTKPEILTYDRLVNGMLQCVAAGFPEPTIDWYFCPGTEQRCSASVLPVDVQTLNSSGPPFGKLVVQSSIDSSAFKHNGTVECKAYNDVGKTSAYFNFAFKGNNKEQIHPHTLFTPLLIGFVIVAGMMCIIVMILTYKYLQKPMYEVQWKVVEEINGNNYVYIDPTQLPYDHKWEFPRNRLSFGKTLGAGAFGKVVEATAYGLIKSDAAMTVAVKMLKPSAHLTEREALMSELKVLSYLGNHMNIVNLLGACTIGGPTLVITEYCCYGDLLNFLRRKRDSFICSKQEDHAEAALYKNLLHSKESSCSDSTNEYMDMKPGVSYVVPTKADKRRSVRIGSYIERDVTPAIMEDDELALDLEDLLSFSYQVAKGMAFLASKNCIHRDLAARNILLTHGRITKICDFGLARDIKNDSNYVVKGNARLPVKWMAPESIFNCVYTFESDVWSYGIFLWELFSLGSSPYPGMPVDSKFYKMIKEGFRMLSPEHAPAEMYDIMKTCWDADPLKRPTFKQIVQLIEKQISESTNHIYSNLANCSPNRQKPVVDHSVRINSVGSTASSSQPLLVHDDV

As usually defined, the IC50 is the midpoint of a concentration-inhibition curve. Lower therefore signals greater potency in that assay. With `COc1cc(-c2cc3c(N4CCC(c5nc(C)c(-c6ccc(F)cc6)[nH]5)CC4)ncnc3[nH]2)ccn1` [P-3007, 4-[4-[5-(4-fluorophenyl)-4-methyl-1H-imidazol-2-yl]-1-piperidyl]-6-(2-methoxy-4-pyridyl)-7H-pyrrolo[2,3-d]pyrimidine], the IC50 in experiment [1] is 1 to 10 µM; in experiment [2], less than 10 µM.

For the molecule `COc1cc(-c2cc3c(N4CCC(c5nc(C6CC6)c(-c6ccccc6)[nH]5)CC4)ncnc3[nH]2)ccn1` [P-3008, 4-[4-(4-cyclopropyl-5-phenyl-1H-imidazol-2-yl)-1-piperidyl]-6-(2-methoxy-4-pyridyl)-7H-pyrrolo[2,3-d]pyrimidine], the values for the IC50 in experiment [1] and in experiment [2] were 0.0001 to 1 µM and less than 10 µM, respectively.

For the molecule `Fc1ccc(-c2cc3c(N4CCC(c5nc(C6CC6)c(-c6ccccc6)[nH]5)CC4)ncnc3[nH]2)cc1` [P-3009, 4-[4-(4-cyclopropyl-5-phenyl-1H-imidazol-2-yl)-1-piperidyl]-6-(4-fluorophenyl)-7H-pyrrolo[2,3-d]pyrimidine], the figures for the IC50 in experiment [1] and in experiment [2] were 0.0001 to 1 µM and less than 10 µM, respectively.

For `N#Cc1ccc(-c2cc3c(N4CCC(c5nc(C6CC6)c(-c6ccccc6)[nH]5)CC4)ncnc3[nH]2)cc1` [P-3010, 4-[4-[4-(4-cyclopropyl-5-phenyl-1H-imidazol-2-yl)-1-piperidyl]-7H-pyrrolo[2,3-d]pyrimidin-6-yl]benzonitrile], the figures for the IC50 in experiment [1] and in experiment [2] were 0.0001 to 1 µM and less than 10 µM, respectively.

On to `Cc1nc(C2CCN(c3ncnc4[nH]c(-c5ccc(F)cc5)cc34)CC2)[nH]c1-c1cccc(OC(F)(F)F)c1` [P-3011, 6-(4-fluorophenyl)-4-[4-[4-methyl-5-[3-(trifluoromethoxy)phenyl]-1H-imidazol-2-yl]-1-piperidyl]-7H-pyrrolo[2,3-d]pyrimidine], for which the IC50 in experiment [1] is 1 to 10 µM; in experiment [2], less than 10 µM.

For the molecule `CCOc1cc(-c2[nH]c(C3CCN(c4ncnc5[nH]c(-c6ccc(C#N)cc6)cc45)CC3)nc2C)ccc1C` [P-3095, 4-[4-[4-[5-(3-ethoxy-4-methyl-phenyl)-4-methyl-1H-imidazol-2-yl]-1-piperidyl]-7H-pyrrolo[2,3-d]pyrimidin-6-yl]benzonitrile], the values for the IC50 in experiment [1] and in experiment [2] were 0.0001 to 1 µM and less than 10 µM, respectively.

On to `CCOc1cc(-c2[nH]c(C3CCN(c4ncnc5[nH]c(-c6ccnc(OC)c6)cc45)CC3)nc2C)ccc1C` [P-3096, 4-[4-[5-(3-ethoxy-4-methyl-phenyl)-4-methyl-1H-imidazol-2-yl]-1-piperidyl]-6-(2-methoxy-4-pyridyl)-7H-pyrrolo[2,3-d]pyrimidine], for which the IC50 was 0.0001 to 1 µM in experiment [1] and less than 10 µM in experiment [2].

For the molecule `Cc1nc(C2CCN(c3ncnc4[nH]c(-c5ccnc(C(F)(F)F)c5)cc34)CC2)[nH]c1-c1ccccc1` [P-3097, 4-[4-(4-methyl-5-phenyl-1H-imidazol-2-yl)-1-piperidyl]-6-[2-(trifluoromethyl)-4-pyridyl]-7H-pyrrolo[2,3-d]pyrimidine], the results for the IC50 in experiment [1] and in experiment [2] were 1 to 10 µM and less than 10 µM, respectively.

Consider `Cc1nc(C2CCN(c3ncnc4[nH]c(-c5cccc(C(F)(F)F)c5)cc34)CC2)[nH]c1-c1ccccc1` [P-3098, 4-[4-(4-methyl-5-phenyl-1H-imidazol-2-yl)-1-piperidyl]-6-[3-(trifluoromethyl)phenyl]-7H-pyrrolo[2,3-d]pyrimidine], for which the IC50 in experiment [1] is 1 to 10 µM; in experiment [2], less than 10 µM.

For `CCOc1ccc(-c2[nH]c(C3(C)CCN(c4ncnc5[nH]c(C)cc45)CC3)nc2C)cc1C` [P-3099, 4-[4-[5-(4-ethoxy-3-methyl-phenyl)-4-methyl-1H-imidazol-2-yl]-4-methyl-1-piperidyl]-6-methyl-7H-pyrrolo[2,3-d]pyrimidine], the IC50 is 0.0001 to 1 µM in experiment [1] and less than 10 µM in experiment [2].

In the case of `CCc1ccc(-c2[nH]c(C3(C)CCN(c4ncnc5[nH]c(C)cc45)CC3)nc2C)cc1` [P-3101, 4-[4-[5-(4-ethylphenyl)-4-methyl-1H-imidazol-2-yl]-4-methyl-1-piperidyl]-6-methyl-7H-pyrrolo[2,3-d]pyrimidine], the 50% inhibitory concentration (IC50) in experiment [1] was 0.0001 to 1 µM; in experiment [2], less than 10 µM.

Take `COc1ccc(-c2[nH]c(C3(C)CCN(c4ncnc5[nH]c(C)cc45)CC3)nc2C)cc1C` [P-3102, 4-[4-[5-(4-methoxy-3-methyl-phenyl)-4-methyl-1H-imidazol-2-yl]-4-methyl-1-piperidyl]-6-methyl-7H-pyrrolo[2,3-d]pyrimidine]: the IC50 in experiment [1] was 1 to 10 µM; in experiment [2], less than 10 µM.

As for `COc1cc(-c2cc3c(N4CCC(c5nc(C)c(-c6ccc(C)c(OC)c6)[nH]5)CC4)ncnc3[nH]2)ccn1` [P-3104, 4-[4-[5-(3-methoxy-4-methyl-phenyl)-4-methyl-1H-imidazol-2-yl]-1-piperidyl]-6-(2-methoxy-4-pyridyl)-7H-pyrrolo[2,3-d]pyrimidine], the IC50 is 10 to 300 µM in experiment [1] and less than 10 µM in experiment [2].

For the molecule `COc1cc(-c2[nH]c(C3(C)CCN(c4ncnc5[nH]c(C)cc45)CC3)nc2C)ccc1C` [P-3105, 4-[4-[5-(3-methoxy-4-methyl-phenyl)-4-methyl-1H-imidazol-2-yl]-4-methyl-1-piperidyl]-6-methyl-7H-pyrrolo[2,3-d]pyrimidine], the half-inhibitory concentration (IC50) in experiment [1] is 1 to 10 µM; in experiment [2], less than 10 µM.
